# Active and inactive are the calls of the source. No cut-off for these calls is given here.
# How the values were obtained:
# [1] = tested on: MDA-MB-231; assay: Antimetastatic activity against human MDA-MB-231 cells xenografted in NOD-scid mouse assessed as reduction in tumor burden at 24.5 mg/kg, iv administered thrice per week for 2 weeks; format: functional, organism-based
# [2] = tested on: MDA-MB-231; assay: Antimetastatic activity against human MDA-MB-231 cells xenografted in NOD-scid mouse assessed as reduction in circulating tumor cells at 24.5 mg/kg, iv administered thrice per week for 2 weeks immunofluorescent staining-based assay; format: functional, organism-based
# [3] = tested on: Mus musculus; assay: Toxicity in BALB/c mouse implanted with mouse 4T1 cells assessed as reduction in body weight at 24.5 mg/kg administered thrice per week for 2 weeks after 15 days post implantation; format: organism-based; details: in vivo
# [4] = tested on: 4T1; assay: Antimetastatic activity against mouse 4T1 cells implanted in BALB/c mouse assessed as reduction in gross lung-metastasis count at 24.5 mg/kg administered thrice per week for 2 weeks after 15 days post implantation relative to control; format: functional; set-up: scale not given: the % may be the effect or the level left
# [5] = tested on: 4T1; assay: Antimetastatic activity against mouse 4T1 cells implanted in BALB/c mouse assessed as reduction in microscopic lung nodules at 24.5 mg/kg administered thrice per week for 2 weeks after 15 days post implantation by H and E staining-based assay; format: functional, organism-based
# [6] = tested on: 4T1; assay: Antimetastatic activity against mouse 4T1 cells implanted in BALB/c mouse assessed as reduction in CD31-expressing vasculature at 24.5 mg/kg administered thrice per week for 2 weeks after 15 days post implantation by immunostaining-based assay; format: functional, organism-based
compound,measurement,setting,value
CCCC[C@H](NC(=O)[C@@H]1CCCN1C(=O)[C@@H](NC(=O)[C@H](CO)NC(=O)[C@H](CC(=O)O)NC(=O)[C@@H]1CCCN1C(=O)[C@H](Cc1ccc(O)cc1)NC(=O)[C@H](C)NC(=O)[C@H](CO)NC(=O)COc1ccc(F)c(Cl)c1)C(C)C)C(=O)N[C@@H](CCO)C(=O)N[C@@H](CO)C(=O)NCC(=O)NCCCC[C@H](NC(=O)CNC(=O)[C@H](CO)NC(=O)[C@H](CCO)NC(=O)[C@H](CCCC)NC(=O)[C@@H]1CCCN1C(=O)[C@@H](NC(=O)[C@H](CO)NC(=O)[C@H](CC(=O)O)NC(=O)[C@@H]1CCCN1C(=O)[C@H](Cc1ccc(O)cc1)NC(=O)[C@H](C)NC(=O)[C@H](CO)NC(=O)COc1ccc(F)c(Cl)c1)C(C)C)C(=O)NCC(=O)N[C@H](CCCCNC(=O)CCCc1cn(CCCCCC(=O)O[C@@H](C(=O)O[C@H]2C[C@@]3(O)[C@@H](OC(=O)c4ccccc4)[C@@H]4[C@]5(OC(C)=O)CO[C@@H]5C[C@H](O)[C@@]4(C)C(=O)[C@H](OC(C)=O)C(=C2C)C3(C)C)[C@@H](NC(=O)c2ccccc2)c2ccccc2)nn1)C(=O)NCC(=O)O,Activity,[1],Active
same,Activity,[2],Active
same,Activity,[3],Non-Toxic
same,Activity,[4],>75%
same,Activity,[5],Active
same,Activity,[6],Active

# Source: ChEMBL document CHEMBL4219083, “Reduction of Circulating Cancer Cells and Metastases in Breast-Cancer Models by a Potent EphA2-Agonistic Peptide-Drug Conjugate” (J Med Chem, 2018)
